# Source: patent US20210161929A1, “USES OF VERBASCOSIDE IN TREATMENT OF DIABETIC-ASSOCIATED KDINEY INJURY AND DIABETIC-ASSOCIATED LIVER INJURY” (NANJING UNIVERSITY OF CHINESE MEDICINE, priority 2018, published 2021)
# Assays:
# [1] = rats; cited from earlier work
# [2] = tested on: nephrotoxic nephritis rats model; conditions: cited from earlier work
# [3] = tested on: HK-2 cells; assay: Proliferation of high-glucose induced HK-2 cells; type: cell-based, human; conditions: for inhibition ratio % / OD: 48 hours; for effect on the proliferation of HK-2: in vitro studies, discussion
# Experimental: (§1) Human renal tubular epithelial cells (HK-2) were provided by Nanjing KeyGEN Biotechnology Development Co., Ltd. The complete medium was a low-sugar DMEM with 10% FBS and 1% penicillin-streptomycin solution. The cells were cultured at 37° C. under 5% CO2 and saturated humidity in an incubator. Cells were spread in a 96-well plate and cultured with a 5 mmol/Llow-sugar DMEM for 24 hours. […] The number of cells in each group was detected using a cell counting method after 48 hours of the incubation.
# [4] = tested on: kidneys of db/db mice; assay: Pathological sections of kidney (HE, PAS) of db/db mice; type: in vivo; conditions: 6 weeks, irbesartan 50, verbascoside 70.8 mg·kg^−1·d^−1
# [5] = tested on: NOX1, NOX2, NOX4, α-SMA, E-cadherin, NF-κB p65, TGF-β1, Smad2, Smad3, Smad4 and Smad7 in HK-2 cells; assay: Protein expression in high-glucose induced HK-2 cells (Western blotting); type: cell-based, human; conditions: for effect on the formation of EMT: in vitro studies, HK-2, discussion
# Experimental: as §1, with “The expression quantity of related proteins and mRNA in each cell is detected using Western blotting method and Real-time PCR, and the secretion of related factors in cell supernatant is detected using ELISA. […] Human” for “Human”
# [6] = tested on: HK-2 cells; assay: Morphology of high-glucose induced HK-2 cells; type: cell-based, human; conditions: 50 μmol/L, 48 hours
# [7] = tested on: NOX1, NOX2, NOX4, α-SMA, E-cadherin, NF-κB p65, TGF-β1, Smad2, Smad3, Smad4 and Smad7 in HK-2 cells; assay: mRNA expression in high-glucose induced HK-2 cells (Real-time PCR); type: cell-based, human; conditions: 50 μmol/L, HK-2 cells with high glucose-induced injuries
# From the text: (§2) In the present invention, human renal tubular epithelial (HK-2) cells are selected to establish a high sugar-induced HK-2 cell injury model, and TLR capsules, TLR extract and its major active components verbascoside and catalpol are used for intervention. The expression quantity of related proteins and mRNA in each cell is detected using Western blotting method and Real-time PCR, and the secretion of related factors in cell supernatant is detected using ELISA. In addition, the effect of TLR on regulating oxidative stress reactions of HK-2 cells and TGF-β/smad signal pathway is further explored.
# as §1
# [8] = tested on: MCP-1, IL-1β, TNF-α and IL-6 in supernatant of HK-2 cells; assay: Secretion of inflammatory factors in supernatant of HK-2 cells (ELISA); type: cell-based, human; conditions: 50 μmol/L, HK-2 cells with high glucose-induced injuries
# From the text: as §2, §1
# [9] = tested on: db/db mice serum; assay: Serum metabonomics (UPLC-QTOF/MS, PLS-DA) of db/db mice; type: in vivo; conditions: mouse serum, mean ± SD, n = 6; for Relative distance between administration group and control group in PLS-DA score plot, ESI −: negative ion mode, model group 43.46 ± 3.15; for Relative distance between administration group and control group in PLS-DA score plot, ESI +: positive ion mode, model group 36.62 ± 3.28
# Experimental: After 6 weeks of administration, each of the mice was subjected to blood collection by removing eyeballs. The blood sample was centrifuged at 4° C. and 3000 rpm for 10 minutes to obtain a serum. 100 μL of the frozen-thawed serum was mixed uniformly with 300 μL of acetonitrile under vortex for 2 minutes to produce a mixture. The mixture was centrifuged at 4° C. and 13000 rpm for 10 minutes, and the protein precipitate was removed while the supernatant was collected for determination.
# Chromatographic conditions: ACQUITY™UPLC BEH C18 column (2.1 mm×100 mm, 1.7 μm); and mobile phase: 0.1% formic acid aqueous solution (A)−acetonitrile (B). The gradient elution of serum was programmed as follows: 0-3 minutes, 95%-55% A; […], 55%-5% A; 13-14 minutes, 5% A. The injection volume was 2 μL and a column temperature of 35° C. was employed.
# Mass spectrometry conditions: ESI ion source (ESI^+/ESI^−); mass scanning range: 100-1000 m/z; a capillary voltage of 3.0 kV and a cone voltage of 30 V; an extraction voltage of 2.0 V; ion source temperature and desolvation temperature: respectively 120° C. and 350° C.; cone gas flow rate: 50 L/h; collision energy: 20-50 eV; desolvation gas flow rate: 600 L/h; activation time: 30 ms; and collision gas: high-purity nitrogen. Leucine-enkephalin (ESI^−: 555.2615 m/z, ESI^+: 556.2771 m/z) solution of 200 pg/mL was used as a mass-locking solution at a flow rate of 100 μL/min.
# The obtained original mass spectrometry data was processed using Masslynx v4.1 software. The main parameters included: retention time range: 0-14 minutes; m/z range: 100-1000; mass tolerance range: 0.01 Da; peak intensity threshold: 50; mass window: 0.05 Da; retention time window: 0.2 minutes; and automatic detection of 5% peak height and noise. The intensity of each ion was normalized relative to the total ion count to produce a data list consisting of retention time, m/z value and standardized peak area. The data were imported into EZinfo 2.0 for supervised partial least squares discriminant analysis (PLS-DA) and orthogonal partial least squares discriminant analysis (OPLS-DA). The separation of various metabolites between the control group and the model group was shown in the OPLS-DA plot. Potential biomarkers were extracted from the S-plot constructed after OPLS-DA analysis, and each point in the S-plot represented the information of the corresponding variable. The variable importance in the projection (VIP) was measured by the magnitude of the VIP value. The variables were screened according to the VIP value, and the variable with VIP>1 may be selected as a potential biomarker and the molecular formula of the variable of significant difference between the model group and the control group was further identified. Cross validation parameters R^2Y and Q^2were used to describe the PLS-DA score plot, which represented the total explanatory variables of the […] and the predictability of the model, respectively. When a cumulative value of R^2Y and Q^2 was greater than 0.8, the model may be considered to be reliable. The relative distances between other groups and the control group in the PLS-DA score plot were calculated using the average values of all samples (X and Y axes) of the control group as reference points. This quantitative value can be used as an evaluation index of pharmacodynamics and metabonomics to solve many problems in lacking of accurate and quantitative evaluation methods for pharmacodynamics. SPSS 21.0 software was used for statistical analysis of the relevant data. T-test analysis was performed among groups to verify the significance of the difference of potential biomarkers in different groups. The data were expressed as mean±SD, and the data were considered to have a statistical significance with P<0.05. […]
# [10] = tested on: db/db mice; assay: Biochemical indexes of db/db mice after 6 weeks of intragastric administration; type: in vivo; conditions: ig once a day for 6 weeks, metformin 250, irbesartan 50, verbascoside 70.8 mg·kg^−1·d^−1
# Experimental: 32 male db/db mice and 10 male db/m mice of SPF grade, aged 6-8 weeks and weighing 25-40 g, were purchased from Nanjing Biomedical Research Institute of Nanjing University with an animal license number of SCXK (Su 2015-0001).The mice were raised in an animal room under alternating light and dark every 12 hours with constant temperature of 22±2° C. and humidity of 55±10%.
# All mice were adaptively fed for 3 weeks, and db/m mice were used as a control group with a total number of 10. Db/db mice were randomly divided into four groups according to blood sugar and body weight each of 8 mice, and the four groups respectively were a model group (M), a metformin group (EJSG, 250 mg·kg^−1·d^−1), an irbesartan group (EBST, 50 mg·kg^−1·d^−1) and a verbascoside group (MRHTG, 70.8 mg·kg^−1·d^−1). The same amount of saline was intragastrically administered(ig) to the mice in the control group and the model group, and the volume of intragastric administration (ig) was 10 mL·kg^−1, and such administration was performed once a day for continuous 6 weeks.
# One day before the end of the experiment, urine was collected in a metabolic cage for 12 hours and the urine volume was recorded. Microalbuminuria content was measured and fasting blood glucose (FBG) of mice in each group was measured by tail vein blood sampling. After drug intervention, mice were anesthetized with intraperitoneal injection of 10% chloral hydrate, and blood was collected from eyeballs. The blood was centrifuged at 3000 rpm and 4° C. for 10 minutes to obtain a serum. The serum was then subjected to determination of serum creatinine, blood urea nitrogen, blood insulin, cholesterol, triglyceride, glutamic-pyruvic transaminase and glutamic-oxalacetic transaminase contents.
# [11] = 10 μmol·L^−1, high glucose 30 mmol/L
# [12] = 25 μmol·L^−1, high glucose 30 mmol/L
# [13] = 50 μmol·L^−1, high glucose 30 mmol/L
# [14] = 100 μmol·L^−1, high glucose 30 mmol/L
SMILES,"OD [3, 13]","inhibition ratio % [3, 13] [%]",effect on the proliferation of HK-2 [3],"results of histological examination of kidney (HE, PAS mean OD) [4]",effect on the formation of EMT [5],cell morphologies [6],"Relative distance between administration group and control group in PLS-DA score plot, ESI − [9]","Relative distance between administration group and control group in PLS-DA score plot, ESI + [9]","contents of FBG, T-CHO, TG, GOT, GPT, INS, BUN, mALB and Scr [10]",other results
C[C@@H]1O[C@@H](O[C@@H]2[C@@H](O)[C@H](OCCc3ccc(O)c(O)c3)O[C@H](CO)[C@H]2OC(=O)/C=C/c2ccc(O)c(O)c2)[C@H](O)[C@H](O)[C@H]1O [verbascoside],0.557 ± 0.012,73.95,had an effect on inhibiting,close to those of the control group,had an effect on inhibiting,close to those of the control group,28.59 ± 3.33,31.62 ± 1.07,tended to be normal,"oral bioavailability [1]: low; adverse effects [2]: without causing obvious adverse effects; renal function injury [2]: capable of improving; inhibition ratio % ([3]; 5 μmol·L^−1, high glucose 30 mmol/L): 25.52%; OD ([3]; 5 μmol·L^−1, high glucose 30 mmol/L, control 0.632, model 0.345): 0.418 ± 0.008; OD [3, 11]: 0.457 ± 0.014; inhibition ratio % [3, 11]: 39.02%; OD [3, 12]: 0.501 ± 0.015; inhibition ratio % [3, 12]: 54.36%; OD [3, 14]: 0.559 ± 0.01; inhibition ratio % [3, 14]: 74.65%; proliferation of HK-2 cells under a high glucose condition ([3]; 5, 10, 25, 50, 100 μmol/L): could promote the proliferation of HK-2 cells under a high glucose condition, and the promotion of the proliferation was dose-dependent; protein expressions of NOX1, NOX2, NOX4, α-SMA, E-cadherin, NF-κB p65, TGF-β1, Smad2, Smad3, Smad4 and Smad7 ([5]; 50 μmol/L, HK-2 cells with high-glucose induced injuries): all returned to normal; mRNA expressions of NOX1, NOX2, NOX4, α-SMA, E-cadherin, NF-κB p65, TGF-β1, Smad2, Smad3, Smad4 and Smad7 [7]: all returned to normal; expression levels of MCP-1, IL-1β, TNF-α and IL-6 in the supernatant [8]: returned to normal"
CN(C)C(=N)N=C(N)N [metformin],–,–,–,–,–,–,34.94 ± 2.74,36.57 ± 1.53,tended to be normal,–
"OC[C@H]1O[C@@H](O[C@@H]2OC=C[C@H]3[C@H](O)[C@@H]4O[C@]4(CO)[C@@H]23)[C@H](O)[C@@H](O)[C@@H]1O [catalpol, reference compound]",–,–,had an effect on inhibiting,–,had an effect on inhibiting,–,–,–,–,–
"CCCCC1=NC2(CCCC2)C(=O)N1Cc1ccc(-c2ccccc2-c2nnn[nH]2)cc1 [irbesartan, reference compound]",0.576 ± 0.02,80.57,–,close to those of the control group,–,close to those of the control group,32.16 ± 10,21.56 ± 8.01,tended to be normal,–
